ChEMBL document CHEMBL3400060, “Nucleobase modified neamines with a lysine as a linker, their inhibition specificity for TAR-Tat derived from HIV-1” (Bioorg Med Chem, 2015)
pKd: −log10 of the molar value.

How the values were obtained:
[1] = Binding affinity to HIV-1 RRE RNA by fluorescence anisotropy; set-up: species or system Human immunodeficiency virus 1
Nucleic Acid = assay: Binding affinity to HIV-1 TAR RNA by FRET assay; format: nucleic-acid assay, Human immunodeficiency virus 1

| Structure (SMILES) | pKd [1] | pKd (Nucleic Acid) |
| --- | --- | --- |
| Cc1cn(CC(=O)NCCCC[C@H](N)C(=O)NC[C@H]2O[C@H](O[C@H]3[C@H](O)[C@@H](O)[C@H](N)C[C@@H]3N)[C@H](N)[C@@H](O)[C@@H]2O)c(=O)[nH]c1=O | 6.24 | 6.07 |
| NC[C@H]1O[C@H](O[C@H]2[C@H](O)[C@@H](O)[C@H](N)C[C@@H]2N)[C@H](N)[C@@H](O)[C@@H]1O [NEAMINE] | 5.27 | – |
| Nc1ccn(CC(=O)NCCCC[C@H](N)C(=O)NC[C@H]2O[C@H](O[C@H]3[C@H](O)[C@@H](O)[C@H](N)C[C@@H]3N)[C@H](N)[C@@H](O)[C@@H]2O)c(=O)n1 | 6.19 | 5.85 |
| Nc1ncnc2c1ncn2CC(=O)NCCCC[C@H](N)C(=O)NC[C@H]1O[C@H](O[C@H]2[C@H](O)[C@@H](O)[C@H](N)C[C@@H]2N)[C@H](N)[C@@H](O)[C@@H]1O | 6.24 | 6.13 |
| Nc1nc2c(ncn2CC(=O)NCCCC[C@H](N)C(=O)NC[C@H]2O[C@H](O[C@H]3[C@H](O)[C@@H](O)[C@H](N)C[C@@H]3N)[C@H](N)[C@@H](O)[C@@H]2O)c(=O)[nH]1 | 6.28 | 6.62 |
| NCCCC[C@H](N)C(=O)NC[C@H]1O[C@H](O[C@H]2[C@H](O)[C@@H](O)[C@H](N)C[C@@H]2N)[C@H](N)[C@@H](O)[C@@H]1O | 5.24 | – |
